For the test, the target named is T1, N-lysine methyltransferase KMT5A (Homo sapiens) (UniProt Q9NQR1).
T1 sequence (whole entry): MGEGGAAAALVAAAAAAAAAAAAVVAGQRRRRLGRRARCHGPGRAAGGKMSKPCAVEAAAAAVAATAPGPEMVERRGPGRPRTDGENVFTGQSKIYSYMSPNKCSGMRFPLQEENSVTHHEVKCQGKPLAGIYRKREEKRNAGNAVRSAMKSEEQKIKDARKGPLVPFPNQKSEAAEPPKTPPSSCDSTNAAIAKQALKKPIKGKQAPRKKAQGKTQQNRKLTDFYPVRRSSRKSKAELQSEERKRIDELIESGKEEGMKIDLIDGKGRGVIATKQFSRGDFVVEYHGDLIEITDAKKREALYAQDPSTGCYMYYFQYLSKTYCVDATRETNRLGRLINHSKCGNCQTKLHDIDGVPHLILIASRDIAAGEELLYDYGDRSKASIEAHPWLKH
The experiment in a line: Binding affinity to SETD8 (unknown origin) in absence of S-adenosyl-L-homocysteine by isothermal titration calorimetry. Background: ITC needs no label: the signal is the heat of the interaction.

Active and inactive are the calls of the source. No cut-off for these calls is given here.

On to `CN1CCC[C@@H]2CN(C(=O)c3cccc(Br)c3)C[C@@H]21`, for which the result was inactive.

The values above are taken from ChEMBL document CHEMBL4477270, “Design, synthesis, and protein methyltransferase activity of a unique set of constrained amine containing compounds” (Bioorg Med Chem Lett, 2016).
